Activity calls are given as the source filed them. No cut-off for these calls is given here.
Assays:
IGROV-1 [1] = experiment: Induction of apoptosis in human IGROV1 cells assessed as early apoptotic cells at 5 uM after 24 hrs by Annexin V/7-AAD staining based flow cytometry (reference value: 9%); type: functional
BXPC-3 [2] = experiment: Cell cycle arrest in human BxPC3 cells assessed as accumulation at S phase at 50 uM after 24 hrs by propidium iodide staining based flow cytometry (reference value: 33%); type: functional
PC-3 [3] = experiment: Induction of apoptosis in human PC3 cells assessed as late apoptotic cells at 5 uM after 24 hrs by Annexin V/7-AAD staining based flow cytometry (reference value: 2%); type: functional
PC-3 [4] = experiment: Cell cycle arrest in human PC3 cells assessed as accumulation at G1 phase at 50 uM after 24 hrs by propidium iodide staining based flow cytometry (reference value: 36%); type: functional
IGROV-1 [5] = experiment: Induction of apoptosis in human IGROV1 cells assessed as late apoptotic cells at 15 uM after 24 hrs by Annexin V/7-AAD staining based flow cytometry (reference value: 4%); type: functional
BXPC-3 [6] = experiment: Cell cycle arrest in human BxPC3 cells assessed as accumulation at S phase at 5 uM after 24 hrs by propidium iodide staining based flow cytometry (reference value: 33%); type: functional
PC-3 [7] = experiment: Induction of apoptosis in human PC3 cells assessed as early apoptotic cells at 15 uM after 24 hrs by Annexin V/7-AAD staining based flow cytometry (reference value: 5%); type: functional
PC-3 [8] = experiment: Induction of apoptosis in human PC3 cells assessed as healthy cells at 50 uM after 24 hrs by Annexin V/7-AAD staining based flow cytometry (reference value: 92%); type: functional
IGROV-1 [9] = experiment: Growth inhibition of human IGROV1 cells after 48 hrs by SRB assay; type: functional; details: IGROV-1, 48 h
IGROV-1 [10] = experiment: Cell cycle arrest in human IGROV1 cells assessed as accumulation at G2 phase at 0.5 uM after 24 hrs by propidium iodide staining based flow cytometry (reference value: 19%); type: functional
[11] = Displacement of [3H](+)1-DTG from sigma-2 receptor expressed in rat cerebral cortex membranes after 2 hrs by liquid scintillation spectroscopy; type: cell membranes, Membrane
U-251 = experiment: Cytotoxicity against human U251 cells after 48 hrs by trypan blue assay; type: functional, cell-based
PC-3 [12] = experiment: Cell cycle arrest in human PC3 cells assessed as accumulation at G2 phase at 0.5 uM after 24 hrs by propidium iodide staining based flow cytometry (reference value: 13%); type: functional
IGROV-1 [13] = experiment: Induction of apoptosis in human IGROV1 cells assessed as early apoptotic cells at 50 uM after 24 hrs by Annexin V/7-AAD staining based flow cytometry (reference value: 9%); type: functional
[14] = Displacement of [3H]BTX-B from Na+ channel site 2 after 60 mins by liquid scintillation spectroscopy
PC-3 [15] = experiment: Cell cycle arrest in human PC3 cells assessed as accumulation at >G2 phase at 50 uM after 24 hrs by propidium iodide staining based flow cytometry (reference value: 6%); type: functional
IGROV-1 [16] = experiment: Induction of apoptosis in human IGROV1 cells assessed as healthy cells at 15 uM after 24 hrs by Annexin V/7-AAD staining based flow cytometry (reference value: 86%); type: functional
IGROV-1 [17] = experiment: Cell cycle arrest in human IGROV1 cells assessed as accumulation at >G2 phase at 15 uM after 24 hrs by propidium iodide staining based flow cytometry (reference value: 21%); type: functional
PC-3 [18] = experiment: Induction of apoptosis in human PC3 cells assessed as healthy cells at 5 uM after 24 hrs by Annexin V/7-AAD staining based flow cytometry (reference value: 92%); type: functional
BXPC-3 [19] = experiment: Induction of apoptosis in human BxPC3 cells assessed as cleaved caspase-3 containing cells at 50 uM after 24 hrs by FACS analysis (reference value: 10%); type: functional
BXPC-3 [20] = experiment: Induction of apoptosis in human BxPC3 cells assessed as healthy cells at 50 uM after 24 hrs by Annexin V/7-AAD staining based flow cytometry (reference value: 77%); type: functional
IGROV-1 [21] = experiment: Cell cycle arrest in human IGROV1 cells assessed as accumulation at < G1 phase at 15 uM after 24 hrs by propidium iodide staining based flow cytometry (reference value: 4%); type: functional
PC-3 [22] = experiment: Cytotoxicity against human PC3 cells after 48 hrs by trypan blue assay; type: functional, cell-based
BXPC-3 [23] = experiment: Induction of apoptosis in human BxPC3 cells assessed as total apoptotic death cells at 15 uM after 24 hrs by Annexin V/7-AAD staining based flow cytometry (reference value: 20%); type: functional
IGROV-1 [24] = experiment: Cell cycle arrest in human IGROV1 cells assessed as accumulation at G2 phase at 15 uM after 24 hrs by propidium iodide staining based flow cytometry (reference value: 19%); type: functional
BXPC-3 [25] = experiment: Cell cycle arrest in human BxPC3 cells assessed as accumulation at < G1 phase at 0.5 uM after 24 hrs by propidium iodide staining based flow cytometry (reference value: 9%); type: functional
IGROV-1 [26] = experiment: Induction of apoptosis in human IGROV1 cells assessed as total apoptotic death cells at 0.5 uM after 24 hrs by Annexin V/7-AAD staining based flow cytometry (reference value: 13%); type: functional
BXPC-3 [27] = experiment: Induction of apoptosis in human BxPC3 cells assessed as early apoptotic cells at 5 uM after 24 hrs by Annexin V/7-AAD staining based flow cytometry (reference value: 11%); type: functional
[28] = Growth inhibition of human MSC cells after 48 hrs by SRB assay; type: cell-based
IGROV-1 [29] = experiment: Induction of apoptosis in human IGROV1 cells assessed as healthy cells at 5 uM after 24 hrs by Annexin V/7-AAD staining based flow cytometry (reference value: 86%); type: functional
IGROV-1 [30] = experiment: Induction of apoptosis in human IGROV1 cells assessed as early apoptotic cells at 15 uM after 24 hrs by Annexin V/7-AAD staining based flow cytometry (reference value: 9%); type: functional
IGROV-1 [31] = experiment: Cytotoxicity against human IGROV1 cells after 48 hrs by trypan blue assay; type: functional, cell-based
BXPC-3 [32] = experiment: Induction of apoptosis in human BxPC3 cells assessed as cleaved caspase-3 containing cells at 5 uM after 24 hrs by FACS analysis (reference value: 10%); type: functional
BXPC-3 [33] = experiment: Cell cycle arrest in human BxPC3 cells assessed as accumulation at < G1 phase at 50 uM after 24 hrs by propidium iodide staining based flow cytometry (reference value: 9%); type: functional
PC-3 [34] = experiment: Induction of apoptosis in human PC3 cells assessed as cleaved caspase-3 containing cells at 0.5 uM after 24 hrs by FACS analysis (reference value: 3%); type: functional
BXPC-3 [35] = experiment: Cell cycle arrest in human BxPC3 cells assessed as accumulation at >G2 phase at 50 uM after 24 hrs by propidium iodide staining based flow cytometry (reference value: 6%); type: functional
BXPC-3 [36] = experiment: Cell cycle arrest in human BxPC3 cells assessed as accumulation at < G1 phase at 5 uM after 24 hrs by propidium iodide staining based flow cytometry (reference value: 9%); type: functional
SF-295 = experiment: Cytotoxicity against human SF295 cells after 48 hrs by trypan blue assay; type: functional, cell-based
PC-3 [37] = experiment: Cell cycle arrest in human PC3 cells assessed as accumulation at < G1 phase at 5 uM after 24 hrs by propidium iodide staining based flow cytometry (reference value: 4%); type: functional

Q: For CN1CCN(c2ccc(C(c3ccccc3)C34CC5CC(CC(C5)C3)C4)cc2)CC1 (stereo not drawn), which Activity (IGROV-1 [1]) is on record?
A: The Activity was 8%.

Q: What about the Activity (BXPC-3 [2]) of the same compound?
A: Its Activity is 24%.

Q: What about the Activity (PC-3 [3]) of the same compound?
A: The Activity was 2%.

Q: What about the Activity (PC-3 [4]) of the same compound?
A: Its Activity is 35%.

Q: And the Activity (IGROV-1 [5])?
A: The Activity was 15%.

Q: And the Activity (BXPC-3 [6])?
A: The Activity was 30%.

Q: What about the Activity (PC-3 [7]) of the same compound?
A: Its Activity is 6%.

Q: And the Activity (PC-3 [8])?
A: Its Activity is 61%.

Q: What about the GI50 (IGROV-1 [9]) of the same compound?
A: The GI50 was 8.83 µM.

Q: And the TGI (IGROV-1 [9])?
A: Its TGI is 58.5 µM.

Q: And the CC50 (IGROV-1 [9]; read-out: LC50 (the source's name))?
A: The CC50 was 100 µM.

Q: And the Activity (IGROV-1 [10])?
A: Its Activity is 20%.

Q: What about the IC50 [11] of the same compound?
A: Its IC50 is 0.0376 µM.

Q: What about the Activity (U-251) of the same compound?
A: The Activity was “Active”.

Q: And the Activity (PC-3 [12])?
A: Its Activity is 14%.

Q: What about the Activity (IGROV-1 [13]) of the same compound?
A: The Activity was 46%.

Q: And the IC50 [14]?
A: The IC50 was 1.2 µM.

Q: What about the Activity (PC-3 [15]) of the same compound?
A: The Activity was 11%.

Q: What about the Activity (IGROV-1 [16]) of the same compound?
A: Its Activity is 62%.

Q: What about the Activity (IGROV-1 [17]) of the same compound?
A: The Activity was 20%.

Q: What about the Activity (PC-3 [18]) of the same compound?
A: Its Activity is 92%.

Q: And the Activity (BXPC-3 [19])?
A: Its Activity is 16%.

Q: And the Activity (BXPC-3 [20])?
A: The Activity was 26%.

Q: What about the Activity (IGROV-1 [21]) of the same compound?
A: Its Activity is 11%.

Q: What about the Activity (PC-3 [22]) of the same compound?
A: Its Activity is “Active”.

Q: What about the Activity (BXPC-3 [23]) of the same compound?
A: The Activity was 28%.

Q: What about the Activity (IGROV-1 [24]) of the same compound?
A: The Activity was 21%.

Q: What about the Activity (BXPC-3 [25]) of the same compound?
A: Its Activity is 11%.

Q: And the Activity (IGROV-1 [26])?
A: The Activity was 10%.

Q: What about the Activity (BXPC-3 [27]) of the same compound?
A: Its Activity is 17%.

Q: What about the GI50 at 48 h ([28]; MSC cells) of the same compound?
A: Its GI50 at 48 h is 16.9 µM.

Q: What about the LC50 ([28]; msc, 48 h) of the same compound?
A: Its LC50 is 91.56 µM.

Q: What about the TGI ([28]; msc, 48 h) of the same compound?
A: The TGI was 54.21 µM.

Q: What about the Activity (IGROV-1 [29]) of the same compound?
A: Its Activity is 88%.

Q: What about the Activity (IGROV-1 [30]) of the same compound?
A: The Activity was 18%.

Q: What about the Activity (IGROV-1 [31]) of the same compound?
A: Its Activity is “Active”.

Q: And the Activity (BXPC-3 [32])?
A: The Activity was 5%.

Q: And the Activity (BXPC-3 [33])?
A: Its Activity is 25%.

Q: And the Activity (PC-3 [34])?
A: Its Activity is 1%.

Q: And the Activity (BXPC-3 [35])?
A: The Activity was 5%.

Q: And the Activity (BXPC-3 [36])?
A: Its Activity is 8%.

Q: What about the Activity (SF-295) of the same compound?
A: The Activity was “Active”.

Q: What about the Activity (PC-3 [37]) of the same compound?
A: The Activity was 9%.
